# Experimental data reported in US11247972B2, “Compositions and methods for treating toxoplasmosis, cryptosporidiosis, and other apicomplexan protozoan related diseases” (University of Washington through its Center for …, priority 2010, dated 2022).
# What was measured:
# PfCDPK1 = PfCDPK1 (Plasmodium falciparum (isolate 3D7), UniProt P62344); assay: biochemical; details: read-out: PfCDPK1 (% inhibition @ 3 uM)
# PfCDPK4 = PfCDPK4 (Plasmodium falciparum (isolate 3D7), UniProt Q8IBS5); assay: biochemical; details: read-out: PfCDPK4 (% inhibition @ 3 uM)
SMILES,inhibition at 3 µM (PfCDPK1) [%],inhibition at 3 µM (PfCDPK4) [%]
"N#Cc1cccc(-c2ccc(-c3nn(CC4CCNCC4)c4ncnc(N)c34)cc2)c1 [Compound 74, 4′-(4-amino-1-(piperidin-4-ylmethyl)-1H-pyrazolo[3,4-d]pyrimidin-3-yl)biphenyl-3-carbonitrile]",97,68
"CC(C)n1nc(-c2cccc(-c3ccccc3)c2)c2c(N)ncnc21 [Compound 7z, 3-(biphenyl-3-yl)-1-isopropyl-1H-pyrazolo[3,4-d]pyrimidin-4-amine]",79,21
Cc1cc(-c2nn(CC3CCNCC3)c3ncnc(N)c23)ccc1-c1ccccc1 [Compound 118],97,81
Nc1ncnc2c1c(-c1ccc3cc(O)ccc3c1)nn2CC1CCNCC1 [Compound 119],102,101
COc1ccc(-c2nn(CC3CCNCC3)c3ncnc(N)c23)cc1C [Compound 144],95,94
"CC(C)n1nc(-c2ccc3cc(OCc4ccc(CC(F)(F)F)c(Cl)c4)ccc3c2)c2c(N)ncnc21 [Compound 51, 3-(6-(3-chloro-4-(2,2,2-trifluoroethyl)benzyloxy)naphthalen-2-yl)-1-isopropyl-1H-pyrazolo[3,4-d]pyrimidin-4-amine]",86,92
O=C(CCCC1CCNCC1)Nc1nc2ccc(C(=O)c3ccccc3)cc2[nH]1 [Compound 115],71,84
"NC(=O)Cn1nc(Cc2cccc3ccccc23)c2c(N)ncnc21 [Compound 5c, 2-(4-amino-3-(naphthalen-1-ylmethyl)-1H-pyrazolo[3,4-d]pyrimidin-1-yl)acetamide]",45,23
"CC(C)c1cccc(-c2nn(C(C)C)c3ncnc(N)c23)c1 [Compound 7e, 1-isopropyl-3-(3-isopropylphenyl)-1H-pyrazolo[3,4-d]pyrimidin-4-amine]",74,52
COC(=O)Nc1nc2ccc(C(O)c3ccccc3)cc2[nH]1 (stereo not drawn) [Compound 82],56,4
Nc1nc2ccc(C(=O)c3ccccc3)cc2[nH]1 [Compound 92],68,51
"CC(Oc1ccc2cc(-c3nn(C(C)C)c4ncnc(N)c34)ccc2c1)c1ccccc1 (stereo not drawn) [Compound 53, 1-isopropyl-3-(6-(1-phenylethoxy)naphthalen-2-yl)-1H-pyrazolo[3,4-d]pyrimidin-4-amine]",98,57
"Cn1ccc2cc(-c3nn(CC4CCNCC4)c4ncnc(N)c34)ccc21 [Compound 57, 3-(1-methyl-1H-indol-5-yl)-1-(piperidin-4-ylmethyl)-1H-pyrazolo[3,4-d]pyrimidin-4-amine]",85,82
"CC(C)c1nc(-c2ccc3ccccc3c2)c2c(N)nccn12 [Compound 8, 3-isopropyl-1-(naphthalen-2-yl)imidazo[1,5-a]pyrazin-8-amine]",92,92
"CCCOc1ccc2cc(-c3nn(C(C)C)c4ncnc(N)c34)ccc2c1 [Compound 12, 1-isopropyl-3-(6-propoxynaphthalen-2-yl)-1H-pyrazolo[3,4-d]pyrimidin-4-amine]",95,91
N[C@@H](Cc1ccc(O)cc1)C(=O)Nc1nc2ccc(C(=O)c3ccccc3)cc2[nH]1 [Compound 109],54,30
CC(C)(C)OC(=O)NCCC(=O)Nc1nc2ccc(C(=O)c3ccccc3)cc2[nH]1 [Compound 93],64,49
"CC(C)n1nc(-c2ccc3cc(OCc4ccccc4Cl)ccc3c2)c2c(N)ncnc21 [Compound 46, 3-(6-(2-chlorobenzyloxy)naphthalen-2-yl)-1-isopropyl-1H-pyrazolo[3,4-d]pyrimidin-4-amine]",95,52
Nc1ncnc2c1c(-c1ccccc1)nn2CC1CCNCC1 [Compound 145],93,63
"CCCCOc1ccc2cc(-c3nn(C(C)C)c4ncnc(N)c34)ccc2c1 [Compound 42, 3-(6-butoxynaphthalen-2-yl)-1-isopropyl-1H-pyrazolo[3,4-d]pyrimidin-4-amine]",101,94
"Cc1ccc(C)c(COc2ccc3cc(-c4nn(C(C)C)c5ncnc(N)c45)ccc3c2)c1 [Compound 48, 3-(6-(2,5-dimethylbenzyloxy)naphthalen-2-yl)-1-isopropyl-1H-pyrazolo[3,4-d]pyrimidin-4-amine]",84,10
"CC(C)C(=O)Nc1ccc(-c2nn(C(C)(C)C)c3ncnc(N)c23)cc1 [Compound 59, N-(4-(4-amino-1-tert-butyl-1H-pyrazolo[3,4-d]pyrimidin-3-yl)phenyl)isobutyramide]",98,79
"CC(C)(C)n1nc(-c2ccc(NC(=O)CCl)cc2)c2c(N)ncnc21 [Compound 58, N-(4-(4-amino-1-tert-butyl-1H-pyrazolo[3,4-d]pyrimidin-3-yl)phenyl)-2-chloroacetamide]",97,50

SMILES,inhibition at 3 µM (PfCDPK1) [%],inhibition at 3 µM (PfCDPK4) [%]
"CC(C)n1nc(-c2ccc3cc(OCc4cccc(Cl)c4)ccc3c2)c2c(N)ncnc21 [Compound 47, 3-(6-(3-chlorobenzyloxy)naphthalen-2-yl)-1-isopropyl-1H-pyrazolo[3,4-d]pyrimidin-4-amine]",91,51
"Nc1ncnc2c1c(Cc1cccc3ccccc13)nn2Cc1c[nH]cn1 [Compound 31, 1-((1H-imidazol-4-yl)methyl)-3-(naphthalen-1-ylmethyl)-1H-pyrazolo[3,4-d]pyrimidin-4-amine]",51,40
"CC(C)n1nc(-c2cccc3ccccc23)c2c(N)ncnc21 [Compound 7o, 1-isopropyl-3-(naphthalen-1-yl)-1H-pyrazolo[3,4-d]pyrimidin-4-amine]",58,79
"CCN1CCC(Cn2nc(Cc3cccc4ccccc34)c3c(N)ncnc32)CC1 [Compound 5n, 1-((1-ethylpiperidin-4-yl)methyl)-3-(naphthalen-1-ylmethyl)-1H-pyrazolo[3,4-d]pyrimidin-4-amine]",49,27
O=C(NCCO)Nc1nc2ccc(C(=O)c3ccccc3)cc2[nH]1 [Compound 90],77,64
NCCC(=O)Nc1nc2ccc(C(=O)c3ccccc3)cc2[nH]1 [Compound 94],71,51
"Nc1ncnc2c1c(-c1cnc3ccccc3c1)nn2CC1CCNCC1 [Compound 30, 1-(piperidin-4-ylmethyl)-3-(quinolin-3-yl)-1H-pyrazolo[3,4-d]pyrimidin-4-amine]",82,86
"CC(C)n1nc(-c2cccc(OCc3ccccc3Cl)c2)c2c(N)ncnc21 [Compound 21, 3-(3-(2-chlorobenzyloxy)phenyl)-1-isopropyl-1H-pyrazolo[3,4-d]pyrimidin-4-amine]",68,9
"CC(C)(C)n1nc(Cc2cccc3ccccc23)c2c(N)ncnc21 [Compound 5d, 1-tert-butyl-3-(naphthalen-1-ylmethyl)-1H-pyrazolo[3,4-d]pyrimidin-4-amine]",76,86
"CC(C)n1nc(-c2ccc3ccccc3c2)c2c(N)ncnc21 [Compound 7p, 1-isopropyl-3-(naphthalen-2-yl)-1H-pyrazolo[3,4-d]pyrimidin-4-amine]",95,98
Cn1ccc2cc(-c3nn(C(C)(C)C)c4ncnc(N)c34)ccc21 [Compound 139],99,96
"COc1ccc2cc(-c3nn(CC4CCNCC4)c4ncnc(N)c34)ccc2c1 [Compound 28, 3-(6-methoxynaphthalen-2-yl)-1-(piperidin-4-ylmethyl)-1H-pyrazolo[3,4-d]pyrimidin-4-amine]",92,99
Cc1cccc(-c2nn(C(C)(C)C)c3ncnc(N)c23)c1 [Compound 134],89,87
O=C(NCCC1CCCNC1)Nc1nc2ccc(C(=O)c3ccccc3)cc2[nH]1 (stereo not drawn) [Compound 91],73,59
Cc1cccc2[nH]c(-c3nc(C(C)(C)C)n4ccnc(N)c34)cc12 [Compound 83],96,93
"Cc1ccc(-c2nn(C(C)C)c3ncnc(N)c23)cc1C [Compound 7h, 3-(3,4-dimethylphenyl)-1-isopropyl-1H-pyrazolo[3,4-d]pyrimidin-4-amine]",83,85
O=C(CC1CCNCC1)Nc1nc2ccc(C(=O)c3ccccc3)cc2[nH]1 [Compound 113],65,61
"CC(=O)N1CCC(CCn2nc(Cc3cccc4ccccc34)c3c(N)ncnc32)CC1 [Compound 5l, 1-(4-(2-(4-amino-3-(naphthalen-1-ylmethyl)-1H-pyrazolo[3,4-d]pyrimidin-1-yl)ethyl)piperidin-1-yl)ethanone]",51,41
Cc1cc(-c2nn(C(C)(C)C)c3ncnc(N)c23)ccc1-c1ccccc1 [Compound 133],79,26
"CC(C)n1nc(-c2cccc(OCc3ccccc3)c2)c2c(N)ncnc21 [Compound 7aa, 3-(3-(benzyloxy)phenyl)-1-isopropyl-1H-pyrazolo[3,4-d]pyrimidin-4-amine]",75,18
"CC(C)n1nc(-c2ccc3cc(OCc4ccccc4)ccc3c2)c2c(N)ncnc21 [Compound 40, 3-(6-(benzyloxy)naphthalen-2-yl)-1-isopropyl-1H-pyrazolo[3,4-d]pyrimidin-4-amine]",101,84
CC(C)(C)n1nc(Br)c2c(N)ncnc21 [Compound 129],79,9
